Test [1] is described as follows: Weight loss of calves during 8 h transport (Example 2). The following applies: calves ~800 lb, dexamethasone i.m. 0.61 mg per 50 lb, NT 1 kg/animal 24 h prior. The format is in vivo, crossbred calves (cattle). From the text: The study in Example 1 was repeated with the addition of a nutritional supplement treatment group. The calves were raised at the Agriculture and Agri-Food Canada Lacombe Research Centre (Lacombe, Alberta, Canada) in accordance with standard operating procedures representative of the cattle industry. The breed, sex and weight of the calves were similar to those used in Example 1. Crossbred calves weighing approximately 800 lb (363 kg) on average were used.
Twenty-four hours prior to transport, the calves were assigned to the nutritional supplement groups and were offered 1 kg/animal of nutritional supplement or a “receiver calf” preparation (Supplement 1(d) as described in U.S. Pat. Nos. 5,505,968 and 5,728,675 to Schaefer et al. with differences being the selection of flavoring, form of an extruded pellet, and carrier being alfalfa) along with their regular feed ration (cereal grain silage). All calves in all treatments were kept on normal feed and water rations prior to transport.
Weights of all animals were recorded pre- and post-transport and metabolic activity was assessed by infrared thermographic analyses of the eye region. […] The animals were then loaded onto a commercial transport carrier and transported for 8 h prior to being offloaded, re-weighed, re-scanned with infrared and re-sampled for cortisol. […]

Test [2] is described as follows: Weight loss of calves during 10 h transport (Example 1). The format is in vivo, crossbred calves (cattle). The settings on record: calves ~600 lb, dexamethasone i.m. 2 mg per 50 lb body weight. From the text:
Forty head of crossbred calves, both steers and heifers, and weighing approximately 600 lb (272 kg) on average were used. The calves were raised at the Agriculture and Agri-Food Canada Lacombe Research Centre (Lacombe, Alberta, Canada) in accordance with standard operating procedures representative of the cattle industry. The calves were randomly divided into two treatment groups designated as control (n=20) and dexamethasone-treated (n=20) and kept on standard feed (cereal grain silage) and water rations prior to transport.
Weights of all animals were recorded pre- and post-transport, metabolic activity was assessed by infrared thermographic analyses (IRT) of the eye region, and a salivary swab collection made for cortisol measurement.
The animals were subsequently loaded onto a commercial transport and transported for 10 h prior to being off loaded at the Agriculture and Agri-Food Canada Kamloops Research Centre (Kamloops, British Columbia, Canada). On arrival, the calves were again weighed, infrared images captured and a salivary swab collected. The animals were held overnight in pens with ad libitum access to water and cereal grain silage, and were again monitored for weight, thermal changes and salivary cortisol the following morning.

The subject of the next test is calves. The test is described as follows: Behavioural scans (lying and eating frequency) for three days following transport (Example 3). The following applies: three day average following transport. The format is in vivo. From the text:
Corticosteroid treatment in conjunction with a nutritional supplement appears to enhance recovery from transport stress. The behavioral responses of animals were monitored following transport. Calves were allocated among five treatment groups as follows:
For all of the above groups, ten behavioural scans lasting one minute each were completed each day (pm) for three days following transport, thereby accumulating a total of 2,280 animal observations. Frequency measures of animals lying and eating were collected. It is well known to those skilled in the art that when animals are fatigued or morbid, they tend to lie down (Kilbour et al., 1984; Agri-Food Research Council Canadian Food Inspection Agency, 2001).

Structures are written as SMILES.

On to `C[C@@H]1C[C@H]2[C@@H]3CCC4=CC(=O)C=C[C@]4(C)[C@@]3(F)[C@@H](O)C[C@]2(C)[C@@]1(O)C(=O)CO` [dexamethasone], for which the “weight loss during transport” value in test [1] (control lost 21.5 kg) is on record as 17.6 kg; in test [1] (control lost 47.36 lb, P<0.05), 38.87 lb; in test [2] (control lost 5%), 3.2 % body weight; in test [2] (control lost 13.8 kg), 8.7 kg; in test [2] (control lost 30.5 lb, P<0.05), 19.2 lb. In addition, in the test on calves (control away 20%, control home 78%), the “Eating Frequency” value is given as 24%. Besides, the “Lying Frequency” value with calves (control away 97%, control home 23%) was 0%.

The values are drawn from US20050277624A1, “Use of corticosteroids alone or in conjunction with nutritional therapy to reduce stress in animals” (priority 2004, published 2005).
